PubChem BioAssay (NCI)
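Briefly, cells in 96-well plates were exposed to five compound concentrations for 48 h, and endpoints were estimated by linear interpolation. GI50 marks 50% less growth. TGI marks complete inhibition of growth.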

Key:
Assay in all cases: NCI anticancer screen, dose series, 48 h
A549 NSCLC = tested on: A549 NSCLC
HCT-15 colon = tested on: HCT-15 colon
K-562 leukemia = tested on: K-562 leukemia
M14 melanoma = tested on: M14 melanoma
NCI-H226 lung = tested on: NCI-H226 lung
NCI-H23 lung = tested on: NCI-H23 lung
NCI-H522 lung = tested on: NCI-H522 lung
OVCAR-4 ovarian = tested on: OVCAR-4 ovarian
OVCAR-8 ovarian = tested on: OVCAR-8 ovarian
SF-268 CNS = tested on: SF-268 CNS

| Structure (SMILES) | GI50 (A549 NSCLC) | TGI (A549 NSCLC) | GI50 (HCT-15 colon) | TGI (HCT-15 colon) | GI50 (K-562 leukemia) | TGI (K-562 leukemia) | GI50 (M14 melanoma) | TGI (M14 melanoma) | GI50 (NCI-H226 lung) | TGI (NCI-H226 lung) | GI50 (NCI-H23 lung) | TGI (NCI-H23 lung) | GI50 (NCI-H522 lung) | TGI (NCI-H522 lung) | GI50 (OVCAR-4 ovarian) | TGI (OVCAR-4 ovarian) | GI50 (OVCAR-8 ovarian) | TGI (OVCAR-8 ovarian) | GI50 (SF-268 CNS) | TGI (SF-268 CNS) |
| --- | --- | --- | --- | --- | --- | --- | --- | --- | --- | --- | --- | --- | --- | --- | --- | --- | --- | --- | --- | --- |
| C[C@@]1(N2C(=O)OC[C@@H]2c2ccccc2)C(=O)N([C@H](CC(=O)N2CCC(N3CCCCC3)CC2)C(=O)NCc2cccc(C(F)(F)F)c2)[C@@H]1/C=C/c1ccccc1 | 2.06 µM | 4.23 µM | 1.79 µM | 3.62 µM | 2.07 µM | 4.82 µM | 1.93 µM | 3.6 µM | 22.5 µM | 39.7 µM | 4.12 µM | 16.7 µM | 1.86 µM | 3.85 µM | 2.6 µM | 9.86 µM | 2.77 µM | 7.24 µM | 1.76 µM | 3.94 µM |
| O=C([O-])c1ccccc1Nc1ccccc1[O-].[Ni+3].[OH3+].[OH3+].[OH3+] | > 100 µM | > 100 µM | > 100 µM | > 100 µM | > 100 µM | > 100 µM | > 100 µM | > 100 µM | 88.4 µM | > 100 µM | > 100 µM | > 100 µM | > 100 µM | > 100 µM | > 100 µM | > 100 µM | > 100 µM | > 100 µM | > 100 µM | > 100 µM |
| COC(=O)c1ccc(C2SCC(=O)N2NC(=O)C(O)c2ccccc2)cc1 (configuration not stated) | > 100 µM | > 100 µM | > 100 µM | > 100 µM | > 100 µM | > 100 µM | > 100 µM | > 100 µM | > 100 µM | > 100 µM | > 100 µM | > 100 µM | > 100 µM | > 100 µM | > 100 µM | > 100 µM | > 100 µM | > 100 µM | > 100 µM | > 100 µM |
| CCN(CC)CCOc1ccc(C(=C2CCCCC2)c2ccc(OCCN(CC)CC)cc2)cc1 |  | 3.16 µM |  | 2.91 µM |  | 1.02 µM |  | 2.91 µM |  | 4.26 µM |  | 3.56 µM |  | 3.29 µM |  | 4.77 µM |  | 3.13 µM |  | 3.23 µM |
| COc1cc(C2C(C#N)=C(N)Oc3cc(O)ccc32)cc(OC)c1OC (configuration not stated) | 0.625 µM | > 100 µM | 0.539 µM | > 100 µM | 0.435 µM | > 100 µM | 0.409 µM | > 100 µM | 6.98 µM | > 100 µM | 0.62 µM | > 100 µM | 0.281 µM | 3.85 µM | 2.14 µM | > 100 µM | 0.856 µM | > 100 µM | 14.5 µM | > 100 µM |
| CC(=O)OCC1OC(Sc2ccccn2)C=CC1OC(C)=O (configuration not stated) |  | > 100 µM |  |  |  | > 100 µM |  | > 100 µM |  | > 100 µM |  | > 100 µM |  | > 100 µM |  | > 100 µM |  | > 100 µM |  | > 100 µM |
| c1ccc(C2N3CCCCC3[C@@H]3c4[nH]c5ccccc5c4CCN23)cc1 (some centres not stated) |  | > 100 µM |  | > 100 µM |  | > 100 µM |  | > 100 µM |  |  |  | > 100 µM |  |  |  | 75.6 µM |  | > 100 µM |  | > 100 µM |
